Patent US9920061B2, “Imidazo[1,5-A]pyrimidinyl carboxamide compounds and their use in the treatment of medical disorders” (Lysosomal Therapeutics Inc., priority 2016, dated 2018)
≈ marks a conversion by molar mass, not a printed value. Like-named read-outs stand apart in the source and are kept apart here.

Assays:
[1] = target: T1, glucocerebrosidase (Gcase) (Homo sapiens, UniProt P04062); assay: Glucocerebrosidase (Gcase) activation assay, 4-methylumbelliferyl-beta-D-glucopyranoside substrate, with saposin C; type: biochemical
T1 sequence (P04062 40-536): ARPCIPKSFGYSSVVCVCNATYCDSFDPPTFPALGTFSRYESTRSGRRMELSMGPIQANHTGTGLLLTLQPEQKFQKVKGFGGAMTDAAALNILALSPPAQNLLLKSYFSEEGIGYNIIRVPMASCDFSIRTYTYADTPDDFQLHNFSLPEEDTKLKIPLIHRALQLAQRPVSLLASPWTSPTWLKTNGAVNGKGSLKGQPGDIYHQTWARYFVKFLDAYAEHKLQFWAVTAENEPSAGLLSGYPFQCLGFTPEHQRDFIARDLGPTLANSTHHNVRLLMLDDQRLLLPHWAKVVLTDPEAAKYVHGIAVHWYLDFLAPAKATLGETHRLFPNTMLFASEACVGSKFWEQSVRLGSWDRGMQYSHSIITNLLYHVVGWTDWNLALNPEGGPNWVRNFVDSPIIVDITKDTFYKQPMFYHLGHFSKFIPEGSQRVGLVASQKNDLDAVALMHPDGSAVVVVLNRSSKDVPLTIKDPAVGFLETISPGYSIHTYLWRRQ
In short: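 Micellar buffer (176 mM K2HPO4/50 mM citric acid, pH 4.7; 0.32 mM triton, 0.37 mol % PS) holding 10 nM GCase and 100 nM saposin C, pre-incubated with compound 30 min at room temperature. Substrate final 2 mM before mixing; 15 min reaction, glycine pH 12.5 stop, fluorescence 365/440 nm. Screened at 1.0 and 0.1 μM; 8-point, 3-fold dose response.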

[2] = Compound solubility in water; type: physicochemical
[3] = 0.1 μM test compound, read-out: Percent Gcase Activation 0.1 μM Test Compound
[4] = 1 μM test compound, read-out: Percent Gcase Activation 1 μM Test Compound
[5] = test compound at 0.1 μM, read-out: Percent Gcase Activation, 0.1 μM Test Compound
[6] = test compound at 1.0 μM, read-out: Percent Gcase Activation, 1 μM Test Compound

activation at 0.1 µM [1, 3] | activation at 1 µM [1, 4] | solubility [2] | activation at 0.1 µM [1, 5] | activation at 1 µM [1, 6] | solubility ([2]; in water) | Structure (SMILES)
< 10% | < 30% | 25.2 µg/mL (≈ 92.5 µM) |  |  |  | Cc1cc(C)n2cnc(C(=O)NC(C)(C)C3CC3)c2n1 [III-8]
10 to 20% | > 60% | 0.3 µg/mL (≈ 0.847 µM) |  |  |  | C#CC(C)(C)NC(=O)c1ncn2c(C)cc(-c3cc(F)cc(F)c3)nc12 [III-188]
10 to 20% | > 60% | 1.1 µg/mL (≈ 2.97 µM) |  |  |  | Cc1cc(-c2ccc(Cl)nc2)nc2c(C(=O)NC(C)(C)C3CC3)ncn12 [III-76]
10 to 20% | > 60% | 26 µg/mL (≈ 71.5 µM) |  |  |  | Cc1cc(N2CCCC(F)(F)C2)nc2c(C(=O)N[C@@H](C)C3CC3)ncn12 [III-114]
10 to 20% | > 60% | 0.6 µg/mL (≈ 1.55 µM) |  |  |  | COCc1cc(-c2cc(F)cc(F)c2)nc2c(C(=O)N[C@@H](C)C3CC3)ncn12 [III-116]
> 20% | > 60% | 3.4 µg/mL (≈ 10.4 µM) |  |  |  | Cc1cc(-c2cccc(F)c2)nc2c(C(=O)NC(C)(C)C)ncn12 [III-124]
< 10% | < 30% | 43.5 µg/mL (≈ 118 µM) |  |  |  | COCc1cc(-c2ccc(F)cc2)n2cnc(C(=O)N[C@@H](C)C3CC3)c2n1 [III-35]
10 to 20% | > 60% | 17.4 µg/mL (≈ 53 µM) |  |  |  | Cc1cc(OC(C)C)nc2c(C(=O)NC(C3CC3)C3CC3)ncn12 [III-178]
< 10% | < 30% | 23.4 µg/mL (≈ 69.6 µM) |  |  |  | Cc1cc(-c2cncnc2)nc2c(C(=O)NC(C)(C)C3CC3)ncn12 [III-57]
> 20% | > 60% | 4.7 µg/mL (≈ 11.9 µM) |  |  |  | CCc1cc(-c2ccns2)nc2c(C(=O)NC(C3CC3)C(F)(F)F)ncn12 (stereo not drawn) [III-165]
< 10% | > 60% | 14.3 µg/mL (≈ 47.6 µM) |  |  |  | Cc1cc(C)n2cnc(C(=O)NC(C)C3CCCCC3)c2n1 (stereo not drawn) [III-9]
> 20% | > 60% | 1.6 µg/mL (≈ 3.85 µM) |  |  |  | Cc1cc(-c2cccc3ocnc23)nc2c(C(=O)NC(C3CC3)C(F)(F)F)ncn12 (stereo not drawn) [III-145]
> 20% | > 60% | 1.8 µg/mL (≈ 4.46 µM) |  |  |  | Cc1cc(N2CCC(F)(F)C2)nc2c(C(=O)NC(C3CC3)C(F)(F)F)ncn12 (stereo not drawn) [III-139]
< 10% | < 30% | 25 µg/mL (≈ 73.9 µM) |  |  |  | Cc1cc(-c2ccc(F)cc2)n2cnc(C(=O)N[C@@H](C)C3CC3)c2n1 [III-13]
> 20% | > 60% | 18 µg/mL (≈ 47.2 µM) |  |  |  | Cc1cc(-c2ccns2)nc2c(C(=O)NC(C3CC3)C(F)(F)F)ncn12 (stereo not drawn) [III-141]
> 20% | > 60% | 4.3 µg/mL (≈ 12 µM) |  |  |  | Cc1cc(-c2cccc(C#N)c2)nc2c(C(=O)NC(C)(C)C3CC3)ncn12 [III-151]
> 20% | > 60% | 4.3 µg/mL (≈ 11 µM) |  |  |  | COc1cccc(-c2cc(C)n3cnc(C(=O)NC(C)(C)C(F)(F)F)c3n2)c1 [III-184]
> 20% | > 60% | 10.9 µg/mL (≈ 27.5 µM) |  |  |  | COCc1cc(C)nc2c(C(=O)NC(c3ccc(F)cc3)C(F)(F)F)ncn12 (stereo not drawn) [III-23]
> 20% | > 60% | 6.1 µg/mL (≈ 16.4 µM) |  |  |  | C#Cc1cccc([C@@H](NC(=O)c2ncn3c(C)cc(C)nc23)C(F)(F)F)c1 [III-4]
10 to 20% | > 60% | 8.4 µg/mL (≈ 24.8 µM) |  |  |  | Cc1cc(-c2cccc(F)c2)nc2c(C(=O)N[C@H](C)C3CC3)ncn12 [III-94]
> 20% | > 60% | 1.1 µg/mL (≈ 3.12 µM) |  |  |  | Cc1cc(-c2cccc(F)c2)nc2c(C(=O)NC(C)(C)C3CC3)ncn12 [III-109]
> 20% | > 60% | 17.2 µg/mL (≈ 43.9 µM) |  |  |  | CCc1cc(N2CCCC(F)(F)C2)nc2c(C(=O)NC(C)(C)C3CC3)ncn12 [III-136]
10 to 20% | > 60% | 22 µg/mL (≈ 59.7 µM) |  |  |  | COCc1cc(-c2ccc(F)cc2)nc2c(C(=O)N[C@@H](C)C3CC3)ncn12 [III-36]
> 20% | > 60% | 0.9 µg/mL (≈ 2.46 µM) |  |  |  | C#CC(C)(C)NC(=O)c1ncn2c(C)cc(-c3cc(F)cc(OC)c3)nc12 [III-187]
> 20% | > 60% | 5.5 µg/mL (≈ 14.9 µM) |  |  |  | Cc1cc(OC2CCC2)nc2c(C(=O)NC(C3CC3)C(F)(F)F)ncn12 (stereo not drawn) [III-176]
> 20% | > 60% | 1.3 µg/mL (≈ 3.65 µM) |  |  |  | Cc1cc(-c2cc(F)cc(F)c2)nc2c(C(=O)N[C@@H](C)C3CC3)ncn12 [III-111]
< 10% | > 60% | 4 µg/mL (≈ 11.9 µM) |  |  |  | Cc1cc(-c2ccccn2)nc2c(C(=O)NC(C)(C)C3CC3)ncn12 [III-42]
< 10% | 30 to 60% | 6.6 µg/mL (≈ 16.2 µM) |  |  |  | Cc1cc(-c2ccccn2)nc2c(C(=O)N[C@H]3CC[C@H](OCC(C)C)CC3)ncn12 [III-96]

Further lines, the compound ahead of its results:

Structure (SMILES) | activation at 0.1 µM [1, 3] | activation at 1 µM [1, 4] | solubility [2] | activation at 0.1 µM [1, 5] | activation at 1 µM [1, 6] | solubility ([2]; in water)
Cc1cc(-c2cccc(-c3ncccn3)c2)nc2c(C(=O)NC(C3CC3)C(F)(F)F)ncn12 (stereo not drawn) [IV- 61] |  |  |  | > 20% | > 60% | 1.1 µg/mL (≈ 2.43 µM)
COc1c(C#N)cccc1-c1cc(C)n2cnc(C(=O)NC(C)C(F)(F)F)c2n1 (stereo not drawn) [IV-66] |  |  |  | < 10% | < 30% | 23.9 µg/mL (≈ 59.3 µM)
Cc1cc(-c2ccoc2)nc2c(C(=O)NC(C3CC3)C(F)(F)F)ncn12 (stereo not drawn) [IV-84] |  |  |  | > 20% | > 60% | 3.2 µg/mL (≈ 8.78 µM)
Cc1cc(-c2cccc3ncoc23)nc2c(C(=O)N[C@@H](C3CC3)C(F)(F)F)ncn12 [IV-18] |  |  |  | > 20% | > 60% | 0.4 µg/mL (≈ 0.963 µM)
Cc1cc(-c2ccc3c(c2)OCO3)nc2c(C(=O)NC(C)C(F)(F)F)ncn12 (stereo not drawn) [IV-76] |  |  |  | > 20% | > 60% | 1.2 µg/mL (≈ 3.06 µM)
COc1ccc(-c2cc(C)n3cnc(C(=O)NC(C4CC4)C(F)(F)F)c3n2)cc1F (stereo not drawn) [IV-70] |  |  |  | > 20% | > 60% | 1.5 µg/mL (≈ 3.55 µM)
Cc1cc(-c2ccc(C#N)o2)nc2c(C(=O)NC(C3CC3)C(F)(F)F)ncn12 (stereo not drawn) [IV-33] |  |  |  | > 20% | > 60% | 0.7 µg/mL (≈ 1.8 µM)
CCc1cc(N2CCN(C(C)C)C2=O)nc2c(C(=O)NC(C3CC3)C(F)(F)F)ncn12 (stereo not drawn) [IV-16] |  |  |  | 10 to 20% | > 60% | 24.6 µg/mL (≈ 56.1 µM)
COc1cc(F)cc(-c2cc(C)n3cnc(C(=O)N[C@@H](C)C(F)(F)F)c3n2)c1 [IV-59] |  |  |  | > 20% | > 60% | 2.2 µg/mL (≈ 5.55 µM)
COc1ccc(F)c(-c2cc(C)n3cnc(C(=O)NC(C)(C)C)c3n2)c1 [IV-103] |  |  |  | 10 to 20% | > 60% | 0.7 µg/mL (≈ 1.96 µM)
Cc1cc(Oc2ccncc2)nc2c(C(=O)N[C@@H](C)C3CC3)ncn12 [IV-115] |  |  |  | < 10% | < 30% | 29.6 µg/mL (≈ 87.7 µM)
CCOc1cccc(-c2cc(C)n3cnc(C(=O)NC(C4CC4)C(F)(F)F)c3n2)n1 (stereo not drawn) [IV-102] |  |  |  | > 20% | > 60% | 7.8 µg/mL (≈ 18.6 µM)
COc1c(F)cccc1-c1cc(C)n2cnc(C(=O)NC(C3CC3)C(F)(F)F)c2n1 (stereo not drawn) [IV-63] |  |  |  | 10 to 20% | > 60% | 3.1 µg/mL (≈ 7.34 µM)
Cc1cc(-c2cccc(F)c2)nc2c(C(=O)N[C@@H](C3CC3)C(F)(F)F)ncn12 [IV-20] |  |  |  | > 20% | > 60% | 0.7 µg/mL (≈ 1.78 µM)
Cc1cc(-c2ccc3c(c2)OCO3)nc2c(C(=O)N[C@H](C)C3CC3)ncn12 [IV-29] |  |  |  | > 20% | > 60% | 1.1 µg/mL (≈ 3.02 µM)
COc1c(F)cccc1-c1cc(C)n2cnc(C(=O)NC(C)C(F)(F)F)c2n1 (stereo not drawn) [IV-64] |  |  |  | < 10% | 30 to 60% | 21 µg/mL (≈ 53 µM)
Cc1cc(-c2ccccc2C#N)nc2c(C(=O)NC(C)(C)C)ncn12 [IV-109] |  |  |  | < 10% | 30 to 60% | 2.5 µg/mL (≈ 7.5 µM)
Cc1cc(-c2cnsc2)nc2c(C(=O)N[C@@H](C3CC3)C(F)(F)F)ncn12 [IV-53] |  |  |  | 10 to 20% | > 60% | 13.2 µg/mL (≈ 34.6 µM)
CCc1cc(-c2ccsn2)nc2c(C(=O)NC(C3CC3)C(F)(F)F)ncn12 (stereo not drawn) [IV-106] |  |  |  | > 20% | > 60% | 0.6 µg/mL (≈ 1.52 µM)
Cc1cc(C(=O)Nc2ccccc2)nc2c(C(=O)NC(C3CC3)C(F)(F)F)ncn12 (stereo not drawn) [IV-100] |  |  |  | < 10% | < 30% | 6.2 µg/mL (≈ 14.9 µM)
Cc1cc(-c2cnsc2)nc2c(C(=O)NC(C3CC3)C(F)(F)F)ncn12 (stereo not drawn) [IV-51] |  |  |  | > 20% | > 60% | 2.1 µg/mL (≈ 5.51 µM)
Cc1cc(-c2cccc3ncnn23)nc2c(C(=O)NC(C3CC3)C(F)(F)F)ncn12 (stereo not drawn) [IV-41] |  |  |  | < 10% | 30 to 60% | 3.5 µg/mL (≈ 8.43 µM)
